The source made the active and inactive calls.
Tests used:
Protein RecA = biological target: T1, Protein RecA (Mycobacterium tuberculosis, UniProt P9WHJ3); experiment: Fluorescence Cell-Free Homogeneous Dose Retest to Identify Inhibitors of RecA-Intein Splicing Activity. [Related pubchem assays (depositor defined):AID2097, AID2223, AID489010, AID492950]; format: functional
T1 sequence (P9WHJ3 whole entry): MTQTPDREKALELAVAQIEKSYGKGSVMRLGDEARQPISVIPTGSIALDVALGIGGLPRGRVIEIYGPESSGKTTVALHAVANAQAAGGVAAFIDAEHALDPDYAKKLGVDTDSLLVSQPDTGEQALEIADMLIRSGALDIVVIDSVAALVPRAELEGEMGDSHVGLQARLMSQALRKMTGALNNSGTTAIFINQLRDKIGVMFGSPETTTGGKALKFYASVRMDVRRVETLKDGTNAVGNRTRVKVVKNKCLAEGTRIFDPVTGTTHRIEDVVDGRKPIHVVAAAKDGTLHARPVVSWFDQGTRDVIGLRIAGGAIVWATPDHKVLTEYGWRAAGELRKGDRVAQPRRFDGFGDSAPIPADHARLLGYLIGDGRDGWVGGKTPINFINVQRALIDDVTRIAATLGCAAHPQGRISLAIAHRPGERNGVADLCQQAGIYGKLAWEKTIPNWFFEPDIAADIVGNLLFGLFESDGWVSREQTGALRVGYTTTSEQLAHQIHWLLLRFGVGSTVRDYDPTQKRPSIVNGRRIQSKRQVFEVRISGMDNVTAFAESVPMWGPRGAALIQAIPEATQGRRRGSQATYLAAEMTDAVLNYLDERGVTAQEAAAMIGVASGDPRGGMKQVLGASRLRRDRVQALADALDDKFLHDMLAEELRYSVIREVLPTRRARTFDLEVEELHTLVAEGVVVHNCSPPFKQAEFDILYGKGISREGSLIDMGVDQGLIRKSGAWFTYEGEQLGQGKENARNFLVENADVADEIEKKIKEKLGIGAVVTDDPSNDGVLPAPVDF

Aspartyl aminopeptidase = Aspartyl aminopeptidase (Plasmodium falciparum 3D7, UniProt Q8I2J3); experiment: Counterscreen for inhibitors of M1 and M17 aminopeptidases: QFRET-based biochemical high throughput dose response assay for inhibitors of the Plasmodium falciparum M18 Aspartyl Aminopeptidase (PFM18AAP). [Related PubChem assays: 1619 (Screening assay (M17LAP inhibitors).), 1445 (Screening assay (M1AAP inhibitors).)]
Chain of Aspartyl aminopeptidase (Q8I2J3 whole entry): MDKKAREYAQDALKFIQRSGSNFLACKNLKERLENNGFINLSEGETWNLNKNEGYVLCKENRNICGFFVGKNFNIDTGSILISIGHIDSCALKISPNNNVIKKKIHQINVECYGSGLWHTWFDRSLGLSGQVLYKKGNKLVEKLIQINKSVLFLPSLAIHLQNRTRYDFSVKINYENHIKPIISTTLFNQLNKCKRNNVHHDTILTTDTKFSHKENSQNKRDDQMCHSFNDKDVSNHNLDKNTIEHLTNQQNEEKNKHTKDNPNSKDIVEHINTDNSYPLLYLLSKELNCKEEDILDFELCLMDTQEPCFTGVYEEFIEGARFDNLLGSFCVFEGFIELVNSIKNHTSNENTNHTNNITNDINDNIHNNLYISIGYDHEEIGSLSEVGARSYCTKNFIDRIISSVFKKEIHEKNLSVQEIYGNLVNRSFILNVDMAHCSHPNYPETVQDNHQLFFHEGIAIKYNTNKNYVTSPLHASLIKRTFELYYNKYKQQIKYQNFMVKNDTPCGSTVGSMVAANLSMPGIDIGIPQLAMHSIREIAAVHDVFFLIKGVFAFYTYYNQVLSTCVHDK

Procathepsin L = Procathepsin L (Homo sapiens, UniProt P07711); experiment: cathepsin L inhibitors, dose response, counter-screen for M1/M17 aminopeptidase inhibitor project, biochemical, QFRET, 1536-well (AID 2214)
Chain of Procathepsin L (P07711 whole entry): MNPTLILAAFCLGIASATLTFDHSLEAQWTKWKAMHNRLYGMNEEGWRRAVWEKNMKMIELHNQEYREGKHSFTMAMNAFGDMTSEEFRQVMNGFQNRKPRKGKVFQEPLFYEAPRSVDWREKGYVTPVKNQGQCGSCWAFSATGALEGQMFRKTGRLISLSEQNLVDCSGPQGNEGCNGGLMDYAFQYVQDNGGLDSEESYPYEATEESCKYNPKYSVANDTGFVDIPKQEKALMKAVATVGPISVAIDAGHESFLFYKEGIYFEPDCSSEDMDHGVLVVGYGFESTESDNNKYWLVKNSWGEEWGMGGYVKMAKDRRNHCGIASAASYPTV

Leucine aminopeptidase = biological target: T2, Leucine aminopeptidase (Plasmodium falciparum 3D7, UniProt Q8IL11); experiment: P. falciparum M17LAP inhibitors, primary screen, biochemical, fluorogenic H-Leu-NHMec substrate, 1536-well (AID 1619); format: functional
T2 sequence (Q8IL11 whole entry): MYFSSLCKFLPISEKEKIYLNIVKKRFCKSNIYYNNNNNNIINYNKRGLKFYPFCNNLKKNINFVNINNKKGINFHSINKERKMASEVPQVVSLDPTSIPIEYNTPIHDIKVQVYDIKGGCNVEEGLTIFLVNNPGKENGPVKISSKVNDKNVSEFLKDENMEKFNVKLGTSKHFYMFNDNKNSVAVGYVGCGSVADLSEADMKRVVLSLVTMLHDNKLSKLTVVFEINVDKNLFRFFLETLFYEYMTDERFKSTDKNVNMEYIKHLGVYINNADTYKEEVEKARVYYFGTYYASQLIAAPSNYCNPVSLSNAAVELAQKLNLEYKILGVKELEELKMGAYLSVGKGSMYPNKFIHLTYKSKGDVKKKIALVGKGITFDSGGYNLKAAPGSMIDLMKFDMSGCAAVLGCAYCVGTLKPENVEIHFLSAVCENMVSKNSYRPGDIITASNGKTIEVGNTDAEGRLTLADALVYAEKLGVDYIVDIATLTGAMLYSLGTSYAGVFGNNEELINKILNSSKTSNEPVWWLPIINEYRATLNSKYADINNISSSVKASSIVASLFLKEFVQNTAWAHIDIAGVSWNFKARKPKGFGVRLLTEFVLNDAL

[1] = biological target: T3, Replicative DNA helicase DnaB (Mycobacterium tuberculosis, UniProt P9WMR3); experiment: DnaB intein splicing inhibitors, dose response, biochemical, cell-free fluorescence (AID 449749); format: functional
T3 sequence (P9WMR3 whole entry): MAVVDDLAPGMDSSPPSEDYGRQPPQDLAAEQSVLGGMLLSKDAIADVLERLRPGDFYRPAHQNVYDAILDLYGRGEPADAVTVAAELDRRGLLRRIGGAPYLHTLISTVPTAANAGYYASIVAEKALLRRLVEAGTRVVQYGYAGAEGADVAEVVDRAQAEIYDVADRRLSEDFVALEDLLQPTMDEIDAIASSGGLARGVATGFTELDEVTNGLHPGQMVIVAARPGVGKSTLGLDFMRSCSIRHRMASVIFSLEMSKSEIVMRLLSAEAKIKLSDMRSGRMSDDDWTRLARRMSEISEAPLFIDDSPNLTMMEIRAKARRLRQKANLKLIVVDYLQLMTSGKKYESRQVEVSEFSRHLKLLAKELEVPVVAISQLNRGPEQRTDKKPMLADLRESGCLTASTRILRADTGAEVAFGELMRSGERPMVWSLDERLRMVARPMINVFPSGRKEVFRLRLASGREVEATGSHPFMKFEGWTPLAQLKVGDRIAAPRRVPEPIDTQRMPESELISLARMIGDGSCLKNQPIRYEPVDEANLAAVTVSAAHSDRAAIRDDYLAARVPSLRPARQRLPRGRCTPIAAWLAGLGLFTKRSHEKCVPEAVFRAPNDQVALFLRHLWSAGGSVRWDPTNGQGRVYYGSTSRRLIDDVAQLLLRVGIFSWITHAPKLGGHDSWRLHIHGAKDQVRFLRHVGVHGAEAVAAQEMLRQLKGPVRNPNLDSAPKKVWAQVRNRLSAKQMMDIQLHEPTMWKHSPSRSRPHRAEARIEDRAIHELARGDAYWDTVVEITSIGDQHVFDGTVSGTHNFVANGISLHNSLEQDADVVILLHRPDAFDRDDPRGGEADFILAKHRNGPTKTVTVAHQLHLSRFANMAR

[2] = Luminescence Cell-Based Dose Confirmation HTS to Identify Inhibitors of Polyadenylation.; format: functional
Jurkat = experiment: antigen receptor-induced NF-kB inhibitors, dose response, Jurkat, luciferase reporter, luminescence, B- and T-cell (AID 489004); format: functional, cell-based; settings: Homo sapiens;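 also: NF-kB luciferase reporter Jurkat cells stimulated with PMA plus ionomycin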
Paired box protein Pax-8 = Paired box protein Pax-8 (Homo sapiens, UniProt Q06710); experiment: inhibitors of PAX8-driven TPO luciferase reporter, dose response, RMG-I cells, cherry-pick (AID 687027); format: functional, cell-based;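 also: luciferase reporter driven by Pax8 target thyroperoxidase promoter measured by SteadyGlo luminescence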
Chain of Paired box protein Pax-8 (Q06710 whole entry): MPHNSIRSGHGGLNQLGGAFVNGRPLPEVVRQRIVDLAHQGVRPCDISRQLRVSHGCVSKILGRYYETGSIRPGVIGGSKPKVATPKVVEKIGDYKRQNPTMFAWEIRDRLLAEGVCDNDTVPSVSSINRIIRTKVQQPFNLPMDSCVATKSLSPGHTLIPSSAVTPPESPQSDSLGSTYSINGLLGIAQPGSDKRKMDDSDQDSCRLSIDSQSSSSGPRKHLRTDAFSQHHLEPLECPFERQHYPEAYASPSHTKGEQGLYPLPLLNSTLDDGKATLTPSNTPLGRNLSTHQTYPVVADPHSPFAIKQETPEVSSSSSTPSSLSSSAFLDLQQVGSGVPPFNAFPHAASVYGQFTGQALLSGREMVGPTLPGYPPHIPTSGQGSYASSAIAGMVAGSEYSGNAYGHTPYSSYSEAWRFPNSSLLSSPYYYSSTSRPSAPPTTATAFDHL

[3] = microbe, parasite or virus in culture; format: functional; settings: Mycobacterium tuberculosis
[4] = Luminescent dose response cell-based high throughput screening assay for inhibitors of the Janus kinase 2 mutant JAK2V617F. [Related pubchem assays: 1446 (Primary screen.), 1521 (Confirmation assay.), 1486 (Counter screen.)]; format: functional
[5] = non-specific cell cytotoxicity, dose response, cytotoxicity control for PAX8 inhibitor project, plate reader, dry powder samples (AID 743021); format: functional, cell-based
[6] = cytotoxicity in HEK-293T NF-kB-Luc cells, dose response, cytotoxicity control for B/T-cell NF-kB inhibitor project, cell-based, uHTS hits (AID 489019); format: functional;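 also: IC50 reflects cytotoxicity as loss of cell viability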
Cytochrome P450 2C19 = Cytochrome P450 2C19 (Homo sapiens, UniProt P33261); experiment: qHTS Assay for Inhibitors and Substrates of Cytochrome P450 2C19. [Related pubchem assays: 410 ]; format: ADME; settings: read-out: Potency
Cytochrome P450 3A4 = Cytochrome P450 3A4 (Homo sapiens, UniProt P08684); settings: Potency;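 also: confirmatory qHTS run detecting inhibitors and substrates of CYP3A4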
Chain of Cytochrome P450 3A4 (P08684 whole entry): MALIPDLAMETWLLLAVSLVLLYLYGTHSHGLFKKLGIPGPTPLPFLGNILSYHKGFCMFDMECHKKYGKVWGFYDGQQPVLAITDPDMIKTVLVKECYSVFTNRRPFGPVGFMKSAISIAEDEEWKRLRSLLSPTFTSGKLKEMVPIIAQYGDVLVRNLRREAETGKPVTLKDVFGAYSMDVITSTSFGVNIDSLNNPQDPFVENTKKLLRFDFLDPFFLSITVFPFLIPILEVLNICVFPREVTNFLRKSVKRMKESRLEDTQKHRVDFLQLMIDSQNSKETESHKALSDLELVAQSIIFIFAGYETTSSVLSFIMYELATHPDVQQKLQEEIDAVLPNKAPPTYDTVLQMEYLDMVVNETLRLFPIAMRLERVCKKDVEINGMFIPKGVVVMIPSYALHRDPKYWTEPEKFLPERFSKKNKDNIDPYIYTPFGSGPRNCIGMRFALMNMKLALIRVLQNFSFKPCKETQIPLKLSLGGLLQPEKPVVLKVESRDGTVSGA

[7] = biological target: Protein-tyrosine kinase 2-beta (Homo sapiens, UniProt Q14289);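 also: potency of inhibitors of PYK2 kinase phosphorylation of poly-GT substrate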
Chain of Protein-tyrosine kinase 2-beta (Q14289 whole entry): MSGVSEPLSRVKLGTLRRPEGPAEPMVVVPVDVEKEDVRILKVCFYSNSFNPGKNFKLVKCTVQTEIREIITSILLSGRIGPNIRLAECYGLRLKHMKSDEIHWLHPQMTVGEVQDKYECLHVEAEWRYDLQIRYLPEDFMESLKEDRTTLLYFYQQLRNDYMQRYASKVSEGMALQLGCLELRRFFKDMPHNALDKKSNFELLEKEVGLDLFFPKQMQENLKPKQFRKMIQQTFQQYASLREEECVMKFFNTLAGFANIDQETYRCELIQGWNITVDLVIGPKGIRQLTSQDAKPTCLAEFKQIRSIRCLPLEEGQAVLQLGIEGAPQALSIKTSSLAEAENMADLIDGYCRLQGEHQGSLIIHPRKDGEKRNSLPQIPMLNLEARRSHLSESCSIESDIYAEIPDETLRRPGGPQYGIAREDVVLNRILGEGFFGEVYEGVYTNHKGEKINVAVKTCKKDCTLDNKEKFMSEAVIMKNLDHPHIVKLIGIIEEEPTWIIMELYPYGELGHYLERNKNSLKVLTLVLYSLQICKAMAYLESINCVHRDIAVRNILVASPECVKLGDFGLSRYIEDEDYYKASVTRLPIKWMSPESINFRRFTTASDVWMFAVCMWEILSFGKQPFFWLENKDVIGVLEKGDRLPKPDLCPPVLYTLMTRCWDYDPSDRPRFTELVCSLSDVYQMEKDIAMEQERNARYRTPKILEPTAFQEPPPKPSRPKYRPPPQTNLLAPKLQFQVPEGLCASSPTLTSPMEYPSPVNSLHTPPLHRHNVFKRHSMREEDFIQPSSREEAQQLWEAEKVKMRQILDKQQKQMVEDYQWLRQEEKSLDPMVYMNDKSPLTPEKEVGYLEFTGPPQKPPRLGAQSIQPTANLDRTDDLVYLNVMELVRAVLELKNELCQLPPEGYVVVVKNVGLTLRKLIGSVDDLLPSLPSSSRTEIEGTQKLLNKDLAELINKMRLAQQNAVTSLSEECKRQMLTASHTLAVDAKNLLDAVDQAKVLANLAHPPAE

[8] = control 3'UTR Renilla luciferase suppression, dose response, counter-screen for Shn3 inhibitor project, cell-based, Clone20-Shn3RL, cherry-picked (AID 624133); format: functional
INS1 = experiment: beta cell apoptosis inhibitors, cytokine rescue, dose response, luminescence, retest (AID 449756); format: functional, cell-based; settings: Rattus norvegicus;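 also: cell death triggered by IL-1 beta plus TNF-alpha plus IFN-gamma mixture; protective hits raise ATP signal compared with cytokine alone wells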
[9] = biological target: Sphingosine 1-phosphate receptor 2 (Homo sapiens, UniProt O95136); experiment: Dose Response Cell Based Assay for Antagonists of the S1P2 Receptor. [Related pubchem assays: 856, 736 ]; format: functional
Chain of Sphingosine 1-phosphate receptor 2 (O95136 whole entry): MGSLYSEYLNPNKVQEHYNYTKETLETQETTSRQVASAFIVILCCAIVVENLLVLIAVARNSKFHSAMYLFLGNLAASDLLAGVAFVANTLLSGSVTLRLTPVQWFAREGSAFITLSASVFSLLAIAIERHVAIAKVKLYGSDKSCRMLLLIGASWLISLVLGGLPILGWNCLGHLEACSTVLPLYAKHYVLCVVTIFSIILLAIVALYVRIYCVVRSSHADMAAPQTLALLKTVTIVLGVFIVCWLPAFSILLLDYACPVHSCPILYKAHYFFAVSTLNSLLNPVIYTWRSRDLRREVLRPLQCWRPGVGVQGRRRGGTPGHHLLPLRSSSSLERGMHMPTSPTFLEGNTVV

[10] = Artemis endonuclease inhibitor potency, dose response, biochemical, fluorescence intensity (AID 720701); format: functional;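 also: Artemis endonuclease enzyme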
[11] = cytotoxicity in HPDE-C7 cells, cell-based, fluorescence, HTS (AID 430); format: functional; settings: Homo sapiens
[12] = system: Streptococcus sp. 'group A'; experiment: growth inhibition of control SK(-) GAS strain, dose response, counter-screen for streptokinase expression inhibitor project, luminescence, kanamycin, BacTiterGlo, confirmation (AID 1900); format: functional, organism-based
Streptococcus = experiment: Group A Streptococcus viability loss, dose response, counter-screen for streptokinase expression inhibitor project, luminescence, BacTiterGlo (AID 1915); format: functional, organism-based;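 also: potency for reduction of bacterial viability or growth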
[13] = Shn3 3'UTR reporter inhibitors, dose response, cell-based, Clone20 osteoblasts, firefly luciferase, cherry-picked (AID 624132); format: functional;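 also: firefly luciferase luminescence from reporter carrying the Shn3 3'UTR in osteoblasts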
[14] = cytotoxicity in KRAS-transformed pancreatic duct cells, primary screen, cell-based, fluorescence, HTS (AID 431); format: functional; settings: Homo sapiens;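 also: cell line used: HPDE-C7K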
[15] = biological target: Photoreceptor-specific nuclear receptor (Homo sapiens, UniProt Q9Y5X4); experiment: NR2E3 inverse agonists, dose response, biochemical, TR-FRET (AID 463256); format: functional
[16] = biological target: Peroxisome proliferator-activated receptor gamma/Nuclear receptor corepressor 2 (Homo sapiens, UniProt P37231+Q9Y618); experiment: Counterscreen for NR2E3 inverse agonists: TR-FRET-based biochemical high throughput dose response assay to identify inverse agonists of the interaction between peroxisome proliferator-activated receptor gamma (PPARg) and nuclear receptor co-repressor 2 (NCOR2).; format: functional
[17] = M. tuberculosis H37Rv growth inhibitors, H37Rv strain (AID 1626); format: functional
cells = format: functional
14-3-3 protein gamma = 14-3-3 protein gamma (Homo sapiens, UniProt P61981); experiment: modulators of 14-3-3 gamma client binding – dose response (AID 711); format: functional
Chain of 14-3-3 protein gamma (P61981 whole entry): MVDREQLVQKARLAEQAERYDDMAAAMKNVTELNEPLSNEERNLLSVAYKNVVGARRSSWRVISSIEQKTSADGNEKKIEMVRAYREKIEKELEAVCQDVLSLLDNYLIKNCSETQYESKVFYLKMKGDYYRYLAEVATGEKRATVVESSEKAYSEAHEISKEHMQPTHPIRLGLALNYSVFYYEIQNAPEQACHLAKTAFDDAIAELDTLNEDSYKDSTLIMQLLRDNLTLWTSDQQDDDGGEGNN

[18] = A High Throughput Confirmatory Assay used to Identify Novel Compounds that Inhibit Mycobacterium Tuberculosis in the absence of Glycerol.; format: functional
[19] = M. tuberculosis growth inhibition, HTS (AID 449762); format: functional
[20] = biological target: T4, Probable nicotinate-nucleotide adenylyltransferase (Staphylococcus aureus (strain N315), UniProt P65502); format: functional, Staphylococcus aureus subsp. aureus N315;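 as to IC50 Mean: confirmatory dose-response retesting of NadD inhibitor hits first found in an ultra-high-throughput screen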
T4 sequence (P65502 whole entry): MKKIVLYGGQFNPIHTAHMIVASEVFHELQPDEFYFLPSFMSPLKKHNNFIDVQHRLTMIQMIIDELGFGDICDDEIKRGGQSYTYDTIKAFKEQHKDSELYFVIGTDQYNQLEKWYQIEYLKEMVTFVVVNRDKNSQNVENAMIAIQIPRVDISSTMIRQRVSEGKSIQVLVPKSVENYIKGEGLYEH

[21] = biological target: T4, Probable nicotinate-nucleotide adenylyltransferase; format: functional, Staphylococcus aureus subsp. aureus N315; settings: read-out: IC50_Mean
Vero = Vero cell cytotoxicity, cytotoxicity control for flavivirus capping enzyme inhibitors (AID 588742); format: functional; settings: Chlorocebus sabaeus
[22] = Counterscreen for activators of the function of SWI/SNF related, matrix associated, actin dependent regulator of chromatin, subfamily a, member 2 (SMARCA2, BRM): Luminescence-based cell-based high throughput dose response assay to identify non-selective compounds using the VP16 reporter assay.; format: functional
[23] = biological target: SWI/SNF-related matrix-associated actin-dependent regulator of chromatin subfamily A member 2 (Homo sapiens, UniProt P51531); experiment: Luminescence-based cell-based high throughput dose response assay to identify activators of the function of SWI/SNF related, matrix associated, actin dependent regulator of chromatin, subfamily a, member 2 (SMARCA2, BRM).; format: functional
[24] = biological target: Voltage-gated inwardly rectifying potassium channel KCNH2 (Homo sapiens, UniProt Q12809); experiment: hERG protection from proarrhythmic block, potency, dose response, cell-based, thallium flux (AID 2121); format: ADME
Chain of Voltage-gated inwardly rectifying potassium channel KCNH2 (Q12809 whole entry): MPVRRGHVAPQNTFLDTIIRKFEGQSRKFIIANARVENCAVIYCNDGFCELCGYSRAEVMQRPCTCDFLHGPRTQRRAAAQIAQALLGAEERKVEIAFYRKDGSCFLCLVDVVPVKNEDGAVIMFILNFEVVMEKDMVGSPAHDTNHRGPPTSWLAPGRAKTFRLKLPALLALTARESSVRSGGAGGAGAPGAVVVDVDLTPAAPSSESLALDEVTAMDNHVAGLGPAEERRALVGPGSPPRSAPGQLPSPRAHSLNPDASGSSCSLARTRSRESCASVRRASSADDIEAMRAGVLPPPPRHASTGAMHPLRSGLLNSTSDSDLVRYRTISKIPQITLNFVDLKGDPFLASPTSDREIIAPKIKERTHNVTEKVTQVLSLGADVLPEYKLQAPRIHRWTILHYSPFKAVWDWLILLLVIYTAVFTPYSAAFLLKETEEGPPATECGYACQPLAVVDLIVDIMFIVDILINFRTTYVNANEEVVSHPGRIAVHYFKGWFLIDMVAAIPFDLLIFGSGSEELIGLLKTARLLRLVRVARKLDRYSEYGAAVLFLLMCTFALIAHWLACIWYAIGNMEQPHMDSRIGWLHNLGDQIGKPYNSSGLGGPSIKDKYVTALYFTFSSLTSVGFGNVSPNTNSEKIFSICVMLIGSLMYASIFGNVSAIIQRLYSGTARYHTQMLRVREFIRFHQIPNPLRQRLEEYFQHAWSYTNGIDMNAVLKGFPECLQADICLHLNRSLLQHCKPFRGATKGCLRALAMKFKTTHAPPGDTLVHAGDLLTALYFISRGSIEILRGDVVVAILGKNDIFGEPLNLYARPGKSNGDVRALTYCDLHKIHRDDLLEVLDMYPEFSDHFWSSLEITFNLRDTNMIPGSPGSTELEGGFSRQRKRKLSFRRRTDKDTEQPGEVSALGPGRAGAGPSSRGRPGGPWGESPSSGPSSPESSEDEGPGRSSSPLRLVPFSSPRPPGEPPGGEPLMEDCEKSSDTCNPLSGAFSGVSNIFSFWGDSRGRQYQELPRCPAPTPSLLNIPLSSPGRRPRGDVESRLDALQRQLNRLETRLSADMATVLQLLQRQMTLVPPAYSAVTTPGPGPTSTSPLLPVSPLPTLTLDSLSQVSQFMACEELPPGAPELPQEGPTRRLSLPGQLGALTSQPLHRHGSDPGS

## Cc1ccc(-c2cc(O)[nH]n2)c(C)c1
Protein RecA
  EC50: 0.502 µM (active)
Aspartyl aminopeptidase
  IC50: > 73.5 µM (not active)
Procathepsin L
  IC50: > 59.6 µM (not active)
Leucine aminopeptidase
  IC50: < 1 µM (active)
[1]
  AC50: 2.53 µM (active)

## CCCOP(=O)(c1ccc(N(C)C)cc1)C(Nc1ccccc1)c1ccc(C)cc1 (centres undefined)
[2]
  EC50: > 120 µM (not active)

## Cc1ccc(Cn2ccs/c2=N\C(=O)CCl)cc1
Jurkat
  IC50: 0.49 µM (active)
Paired box protein Pax-8
  AC50: 1.31 µM (active)
[3]
  CC50: 0.299 µM (active)
[4]
  IC50: 0.744 µM (active)
[5]
  AC50: 3.73 µM (active)
[6]
  IC50: > 80 µM (inactive)

## O=Cc1ccc(OC2C=CC(C#Cc3ccccc3)OC2CO)cc1 (centres undefined)
Cytochrome P450 2C19
  AC50: 0.631 µM (inconclusive)
Cytochrome P450 3A4
  AC50: 3.98 µM (inconclusive)

## CCn1c(=O)c(C(=O)Nc2nc3ccccc3[nH]2)c(O)c2ccccc21
[7]
  IC50: > 69.5 µM (not active)
[8]
  AC50: 4.17 µM (active)
INS1
  AC50: 3.83 µM (active)
[9]
  IC50: > 50 µM (not active)
[10]
  IC50: 3.81 µM (active)
[11]
  EC50: 4.14 µM (active)
[12]
  EC50: 0.992 µM (active)
Streptococcus
  EC50: 2.99 µM (active)
[13]
  AC50: 6.01 µM (active)
[14]
  EC50: 5.58 µM (active)

## COc1ccc(N2CC(=O)C(c3nc(-c4ccccc4)cs3)=C2N)cc1
[15]
  IC50: 13.4 µM (not active)
[16]
  IC50: 24.7 µM (not active)

## N=C1/C(=C/c2ccc(OC(=O)c3ccco3)cc2)C(=O)N=C2SC=CN12
[17]
  IC50: > 100 µM (active)
cells
  IC50: 10.9 µM (active)

## CN1CCc2c(sc(/N=C/c3ccco3)c2C(N)=O)C1
14-3-3 protein gamma
  IC50: > 50 µM (not active)

## CC(=O)c1cccc(NC(=O)C2C3C=CC(C3=C(c3ccccc3)c3ccccc3)C2C(=O)O)c1 (centres undefined)
[18]
  IC50: > 50 µM (active)
[19]
  IC50: > 100 µM (active)
[20]
  IC50: 8.12 µM (active)
[21]
  IC50: 44.5 µM (active)

## O=C1NC(=S)NC(=O)C1=NNc1ccc(S(=O)(=O)N2CCc3ccccc32)cc1
Vero
  CC50: > 20 µM (active)
[22]
  EC50: > 91.2 µM (inactive)
[20]
  IC50: 8.57 µM (active)
[21]
  IC50: 62.4 µM (active)
[23]
  EC50: > 91.2 µM (inactive)
[24]
  EC50: 0.62 µM (active)
